Assay [1] deals with T1, Alpha-2C adrenergic receptor (Homo sapiens, UniProt P18825).
T1 sequence (P18825 whole entry): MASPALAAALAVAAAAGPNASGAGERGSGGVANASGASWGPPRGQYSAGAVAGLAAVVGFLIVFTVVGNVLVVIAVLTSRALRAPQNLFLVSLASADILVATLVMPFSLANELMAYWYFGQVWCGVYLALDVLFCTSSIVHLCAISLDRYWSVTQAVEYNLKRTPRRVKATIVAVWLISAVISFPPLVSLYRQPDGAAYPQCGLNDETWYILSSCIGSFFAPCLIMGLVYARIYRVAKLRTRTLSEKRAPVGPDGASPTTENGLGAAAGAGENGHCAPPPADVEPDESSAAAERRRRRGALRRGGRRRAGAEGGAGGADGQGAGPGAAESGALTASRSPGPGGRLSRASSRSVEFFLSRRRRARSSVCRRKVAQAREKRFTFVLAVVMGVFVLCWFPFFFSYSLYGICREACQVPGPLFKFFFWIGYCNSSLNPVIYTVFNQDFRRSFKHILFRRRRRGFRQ
Kind of assay: DRUGMATRIX: Adrenergic Alpha-2C radioligand binding (ligand: [3H] MK-912). For IC50: call rule not given here. The format is cell membranes, Sf9, Membrane.

Assay [2] has as its target T2, Muscarinic acetylcholine receptor M5 (Homo sapiens, UniProt P08912). Note: in other assays of this panel Not Active means under 50% inhibition at 10 µM.
T2 sequence (P08912 whole entry): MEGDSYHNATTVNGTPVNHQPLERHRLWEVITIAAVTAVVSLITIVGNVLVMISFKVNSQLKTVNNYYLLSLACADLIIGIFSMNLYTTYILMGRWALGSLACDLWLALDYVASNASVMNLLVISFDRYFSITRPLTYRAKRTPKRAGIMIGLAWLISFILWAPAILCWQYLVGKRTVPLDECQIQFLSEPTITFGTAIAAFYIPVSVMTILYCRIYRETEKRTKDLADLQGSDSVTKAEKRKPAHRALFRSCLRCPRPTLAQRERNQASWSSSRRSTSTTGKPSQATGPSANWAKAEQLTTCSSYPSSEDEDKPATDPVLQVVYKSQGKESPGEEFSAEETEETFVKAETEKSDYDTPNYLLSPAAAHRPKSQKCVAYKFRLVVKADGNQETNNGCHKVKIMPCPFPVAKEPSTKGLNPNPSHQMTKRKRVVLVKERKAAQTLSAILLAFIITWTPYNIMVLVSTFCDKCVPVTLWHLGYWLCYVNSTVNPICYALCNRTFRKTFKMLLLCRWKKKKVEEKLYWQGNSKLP
The format is cell membranes, CHO-K1, Membrane. The conditions noted are these: cho-k1.

The target of assay [3] is T3, Neuropeptide Y receptor type 1 (Homo sapiens, UniProt P25929). Note: in other assays of this panel Not Active means under 50% inhibition at 10 µM.
T3 sequence (P25929 whole entry): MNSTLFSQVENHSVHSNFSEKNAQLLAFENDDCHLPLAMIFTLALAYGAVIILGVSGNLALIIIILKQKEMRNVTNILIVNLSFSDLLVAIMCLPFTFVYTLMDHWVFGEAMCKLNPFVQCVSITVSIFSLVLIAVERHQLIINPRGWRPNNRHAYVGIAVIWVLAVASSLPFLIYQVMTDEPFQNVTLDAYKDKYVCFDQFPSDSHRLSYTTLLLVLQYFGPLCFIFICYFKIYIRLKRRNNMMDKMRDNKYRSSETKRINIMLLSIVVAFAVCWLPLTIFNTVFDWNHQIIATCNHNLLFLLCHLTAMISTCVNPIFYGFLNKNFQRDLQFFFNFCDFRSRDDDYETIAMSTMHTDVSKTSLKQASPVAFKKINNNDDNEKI
The format is cell membranes, Membrane. To be noted: sk-n-mc.

Assay [4] deals with Matrix metalloproteinase-9 (Homo sapiens, UniProt P14780). Kind of assay: biochemical. The format is cell-based.
Assay [5] addresses Protein phosphatase 3 catalytic subunit alpha (Homo sapiens, UniProt Q08209). The arrangement: species or system Escherichia coli.
Assay [6] concerns the target T4, 5-hydroxytryptamine receptor 1A (Rattus norvegicus, UniProt P19327). Note: in other assays of this panel Not Active means under 50% inhibition at 10 µM.
T4 sequence (P19327 whole entry): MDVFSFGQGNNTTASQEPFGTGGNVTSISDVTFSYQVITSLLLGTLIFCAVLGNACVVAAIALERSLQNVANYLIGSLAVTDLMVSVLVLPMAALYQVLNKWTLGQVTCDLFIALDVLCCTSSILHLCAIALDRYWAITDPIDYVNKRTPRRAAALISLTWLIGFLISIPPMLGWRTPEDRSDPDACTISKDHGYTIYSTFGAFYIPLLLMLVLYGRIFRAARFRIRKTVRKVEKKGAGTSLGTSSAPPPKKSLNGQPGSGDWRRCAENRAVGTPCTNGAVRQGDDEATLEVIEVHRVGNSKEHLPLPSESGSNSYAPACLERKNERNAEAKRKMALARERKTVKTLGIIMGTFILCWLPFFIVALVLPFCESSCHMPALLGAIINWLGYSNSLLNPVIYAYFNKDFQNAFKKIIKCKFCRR
The format is cell membranes, CHO-K1, Membrane. To be noted: cho-k1.

Sequence of Matrix metalloproteinase-9 (P14780 whole entry): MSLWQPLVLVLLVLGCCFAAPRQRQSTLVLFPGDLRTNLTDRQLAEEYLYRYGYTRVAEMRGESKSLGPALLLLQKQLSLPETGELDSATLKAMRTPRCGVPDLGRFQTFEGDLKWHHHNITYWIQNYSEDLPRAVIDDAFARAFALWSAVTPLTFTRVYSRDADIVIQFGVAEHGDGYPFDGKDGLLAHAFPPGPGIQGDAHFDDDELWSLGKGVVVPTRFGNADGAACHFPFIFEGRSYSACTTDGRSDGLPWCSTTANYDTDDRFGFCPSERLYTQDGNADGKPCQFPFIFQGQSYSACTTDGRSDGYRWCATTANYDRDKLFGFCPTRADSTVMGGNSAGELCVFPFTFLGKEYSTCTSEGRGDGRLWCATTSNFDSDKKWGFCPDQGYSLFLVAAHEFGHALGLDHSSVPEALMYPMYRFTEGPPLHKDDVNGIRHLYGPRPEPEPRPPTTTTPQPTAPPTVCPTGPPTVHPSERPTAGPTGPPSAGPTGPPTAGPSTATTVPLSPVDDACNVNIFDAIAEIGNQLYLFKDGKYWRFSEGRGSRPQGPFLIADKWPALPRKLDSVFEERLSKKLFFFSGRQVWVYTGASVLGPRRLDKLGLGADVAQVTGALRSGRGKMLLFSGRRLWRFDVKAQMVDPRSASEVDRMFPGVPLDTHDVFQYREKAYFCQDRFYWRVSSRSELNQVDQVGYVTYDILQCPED

By IC50 is commonly meant the concentration that inhibits the measured activity by half. For the compound `COc1cc([C@@H]2c3cc4c(cc3[C@@H](O[C@@H]3O[C@@H]5CO[C@@H](C)O[C@H]5[C@H](O)[C@H]3O)[C@H]3COC(=O)[C@H]23)OCO4)cc(OC)c1O` [ETOPOSIDE], the half-maximal inhibitory concentration (IC50) result in assay [1] (sf9), in assay [2], in assay [3], in assay [4], in assay [5] and in assay [6] was “Not Active” in each case.
Consider `C=CCc1ccc(O)c(OC)c1` [EUGENOL], for which the IC50 result in assay [1] (sf9), in assay [2], in assay [3], in assay [4], in assay [5] and in assay [6] was “Not Active” each time.
In the case of `CC(C(=O)O)c1cccc(Oc2ccccc2)c1` (stereo not drawn) [FENOPROFEN], the IC50 entry in assay [1] (sf9), in assay [2], in assay [3], in assay [4], in assay [5] and in assay [6] was “Not Active” in each case.
As for `CC(C)(C)NC(=O)[C@H]1CC[C@H]2[C@@H]3CC[C@H]4NC(=O)C=C[C@]4(C)[C@H]3CC[C@]12C` [FINASTERIDE], the IC50 result in assay [1] (sf9), in assay [2], in assay [3], in assay [4], in assay [5] and in assay [6] was “Not Active” in each case.
With `COc1ccc2c3c1O[C@H]1C[C@@H](O)C=C[C@@]31CCN(C)C2` [GALANTAMINE], the IC50 entry in assay [1] (sf9), in assay [2], in assay [3], in assay [4], in assay [5] and in assay [6] was “Not Active” in each case.
`Nc1ccn([C@@H]2O[C@H](CO)[C@@H](O)C2(F)F)c(=O)n1` [GEMCITABINE]: the IC50 entry in assay [1] (sf9), in assay [2], in assay [3], in assay [4], in assay [5] and in assay [6] was “Not Active” throughout.
In the case of `CC(C)=CCC/C(C)=C/CO` [GERANIOL], the IC50 entry in assay [1] (sf9), in assay [2], in assay [3], in assay [4], in assay [5] and in assay [6] was “Not Active” in each case.
The term Ki denotes the dissociation constant of the complex between target and ligand, obtained from inhibition or displacement. As to `Oc1c(Cl)cc(Cl)c(Cl)c1Cc1c(O)c(Cl)cc(Cl)c1Cl` [HEXACHLOROPHENE], the IC50 was 6.98 µM in assay [1] (read-out: IC50); “Not Active” in assay [2]; “Not Active” in assay [3]; “Not Active” in assay [4]; “Not Active” in assay [5]; “Not Active” in assay [6]. Besides, the inhibitory constant (Ki) in assay [1] (read-out: Ki) was found to be 1.01 µM.
In the case of `NNc1nncc2ccccc12` [HYDRALAZINE], the half-inhibitory concentration (IC50) entry in assay [1] (sf9), in assay [2], in assay [3], in assay [4], in assay [5] and in assay [6] was “Not Active” each time.
Turning to `CC(=O)[C@@]1(O)CC[C@H]2[C@@H]3CCC4=CC(=O)CC[C@]4(C)[C@H]3CC[C@@]21C` [HYDROXYPROGESTERONE], the IC50 entry in assay [1] (sf9), in assay [2], in assay [3], in assay [4], in assay [5] and in assay [6] was “Not Active” each time.
With `COC1=C(OC)C(=O)C(CCCCCCCCCCO)=C(C)C1=O` [IDEBENONE], the IC50 result in assay [1] (sf9), in assay [2], in assay [3], in assay [4], in assay [5] and in assay [6] was “Not Active” in each case.
In the case of `CC(C)NNC(=O)c1ccncc1` [IPRONIAZID], the IC50 result in assay [1] (sf9), in assay [2], in assay [3], in assay [4], in assay [5] and in assay [6] was “Not Active” throughout.
For the compound `Cc1c(OCC(F)(F)F)ccnc1C[S+]([O-])c1nc2ccccc2[nH]1` (stereo not drawn) [LANSOPRAZOLE], the half-inhibitory concentration (IC50) result in assay [1] (sf9), in assay [2], in assay [3], in assay [4], in assay [5] and in assay [6] was “Not Active” in each case.
Regarding `O=c1cc(N2CCOCC2)oc2c(-c3ccccc3)cccc12` [LY-294002], the IC50 result in assay [1] (sf9), in assay [2], in assay [3], in assay [4], in assay [5] and in assay [6] was “Not Active” each time.
For `COc1ccc2[nH]cc(CCNC(C)=O)c2c1` [MELATONIN], the IC50 result in assay [1] (sf9), in assay [2], in assay [3], in assay [4], in assay [5] and in assay [6] was “Not Active” in each case.
`NC(=O)C[S+]([O-])C(c1ccccc1)c1ccccc1` (stereo not drawn) [MODAFINIL]: the IC50 result in assay [1] (sf9), in assay [2], in assay [3], in assay [4], in assay [5] and in assay [6] was “Not Active” in each case.
Regarding `CCN(CC)CCOCCC1=CCC2CC1C2(C)C` (stereo not drawn) [MYRTECAINE], the IC50 result in assay [1] (sf9), in assay [2], in assay [3], in assay [4], in assay [5] and in assay [6] was “Not Active” throughout.
For `O=C(O)c1cccnc1Nc1cccc(C(F)(F)F)c1` [NIFLUMIC ACID], the IC50 result in assay [1] (sf9), in assay [2], in assay [3], in assay [4], in assay [5] and in assay [6] was “Not Active” each time.
Turning to `O=C(N/N=C/c1ccc([N+](=O)[O-])o1)c1cc([N+](=O)[O-])cc([N+](=O)[O-])c1O` [NIFURSOL], the 50% inhibitory concentration (IC50) result in assay [1] (sf9), in assay [2], in assay [3], in assay [4], in assay [5] and in assay [6] was “Not Active” each time.
As for `COC(=O)Nc1nc2ccc(C(=O)c3cccs3)cc2[nH]1` [NOCODAZOLE], the IC50 entry in assay [1] (sf9), in assay [2], in assay [3], in assay [4], in assay [5] and in assay [6] was “Not Active” throughout.
Take `C#CC1(O)CC[C@H]2[C@@H]3CCC4=CC(=O)CC[C@@H]4[C@H]3CC[C@@]21CC` (stereo partly drawn) [NORGESTREL]: the IC50 result in assay [1] (sf9), in assay [2], in assay [3], in assay [4], in assay [5] and in assay [6] was “Not Active” each time.
As for `COC(=O)Nc1nc2ccc([S+]([O-])c3ccccc3)cc2[nH]1` (stereo not drawn) [OXFENDAZOLE], the IC50 entry in assay [1] (sf9), in assay [2], in assay [3], in assay [4], in assay [5] and in assay [6] was “Not Active” in each case.

The values are drawn from ChEMBL document CHEMBL1909046, “DrugMatrix in vitro pharmacology data”.
